Results on 18 molecules are retold here after patent US6544976B1, “Neurotrophic 2-azetidinecarboxylic acid derivatives, and related compositions and methods” (Ortho-McNeil Pharmaceutical, Inc., priority 1999, dated 2003).

In assay [1] the test system is Primary Rat Hippocampal Cells. The assay can be described thus: Neurite outgrowth assay (MAP-2 immunofluorescence) in primary rat hippocampal cells. The settings on record: MAP-2 fluorescence, active if greater than mean DMSO-treated control on same plate, NA = Not active. The format is cell-based. As for the experimental part: Hippocampal cells are dissected from the brains of embryonic day 18 rat pups and dissociated with trypsin (1 mg/mL) and trituration. Cells are seeded at 30,000 cells/well in 96-well plates filled with 100 μL MEM and 10%FBS. At 7 days in culture, cells are fixed with 4% paraformaldehyde and immunofluorescence is performed.
(§1) Cultures are incubated with normal horse serum (1:50; Vector Labs) for about 20 min, rinsed and then incubated with primary antibody, microtubule associated-protein 2 (anti-mouse MAP-2; 1:1000; Chemicon) for about 2 h at about RT. Following primary antibody, cultures are rinsed and incubated with fluorescein anti-mouse IgG (rat absorbed; 1:50; Vector Labs) for about 1 h. After fluorescein incubation, the cultures are rinsed and read in PBS on a fluorescent plate reader (excitation: 485 nm; emission: 530 nm). A compound is regarded as active if the neurite outgrowth response is greater than the mean DMSO-treated control response on the same plate. The response to test compound is reported as percent of DMSO-treated control (absent the percentage sign). The signal-to-noise separation is consistent: the fluorescence from DMSO control wells is at least two-fold greater than blank wells.

Assay [2] concerns Human M17 Neuroblastoma Cells. The assay can be described thus: Neurite outgrowth assay (MAP-2 immunofluorescence) in M17 neuroblastoma cells. The class given is cell-based. The conditions noted are these: MAP-2 fluorescence, active if greater than mean DMSO-treated control on same plate, NA = Not active. On the procedure:
M17 human neuroblastoma cells are cultured in 1:1 ratio of EMEM and Ham's F12 with 1×NEAA and 10% FBS. The culture media contains 1×PSN antibiotic and is exchanged every other day, and the cells are passed in log phase near confluence.
as §1

The next assay deals with DRG. The assay is described as follows: Dorsal root ganglion (DRG) culture, neurite outgrowth. The class given is cell-based, CD rats. On the set-up: key: + = Positive results for each experiment; − = Negative results for each experiment; NA = Not active. The settings on record: test compound 50-250 nM; neurite outgrowth examined on days 1-5; positive (+) if compound induced neurites of ≧1 diameter of the DRG. On the procedure: DRG are dissected from newborn or 1-day-old CD rats and placed into PBS on ice. After rinsing twice with sterile plating medium, DRG are transferred to empty wells of a 6-well plate coated with polyomithine/laminin (Becton Dickinson Labware) using #7 curved forceps. Three ml/well of plating medium are then added very gently, so as not to disturb the DRG. Plating medium is Leibovitz's L-15 medium (Gibco), plus 0.6% glucose, 33 mM KCl, 10% FCS, 10 mM Hepes and penicillin/streptomycin/glutamine. After overnight incubation at about 37° C. in 5% CO2, this medium is replaced with 3 mL/well of assay medium [Leibovitz's L-15 medium plus 0.6% glucose, 1% FCS, 1% N-2 supplement (Gibco), […], 10 mM Hepes, and penicillin/streptomycin/glutamine] containing either vehicle (DMSO, 1/200,000), positive control (2-4 ng/mL NGF) or test compound (50-250 nM). All media are prepared fresh daily. DRG are microscopically examined for neurite outgrowth on days 1-5.

A further assay deals with facial nerve. The assay is described as follows: Rat facial nerve compression model. The format is in vivo, Long-Evans rats. The settings on record: p.o. about 20 mg/kg twice a day for 15 days after surgery; compared to vehicle and internal control; FIG. 1. On the procedure: In this model, compressing the facial nerve causes paralysis of the whisker muscle on that side of the face. The untreated facial nerve on the other side functions as an internal control. […] The whisker movement recovery rate on the paralyzed side compared to the vehicle and internal control is shown in this FIGURE.
Long-Evans rats are anesthetized under ketamine (60 mg/kg)/xylazine (6 mg/kg). The facial nerve is exposed and mechanically compressed with forceps near the stylomastoid foramen unilaterally with the opposite, non-lesioned side serving as an internal control. […] Rats received test compound p.o. at about 20 mg/kg twice a day for 15 days after the surgery. Control rats received vehicle only. Three to eight rats are tested in each group. Restoration of whisker movement after the treatment with compounds of the present invention is recorded at different post-operative time points daily, up to two weeks, and is shown in FIG. 1.

The next assay has as its system PC12 cells. The conditions noted are these: cultures of PC12 cells; cited from earlier work.
The next assay has as its system sensory ganglia. The conditions noted are these: cultures of sensory ganglia; cited from earlier work.

For the molecule `CC(C)(C)C(=O)C(=O)N1CC[C@H]1C(=O)OCCCc1cccnc1` [Compound 10, (2S)-[3-(3-Pyridyl)-1-propyl]-1-(1,2-dioxo-3,3-dimethylbutyl)azetidine-2-carboxylate], in assay [1], the “Rat Hippocampal Cell Response” value is on record as 123% of DMSO-treated control.

For `CCC(C)(C)C(=O)C(=O)N1[C@@H](C(=O)OCCCCc2ccc(OC)cc2)C[C@@H]1C(=O)OCCCCc1ccc(OC)cc1` [Compound 19, (2R,4R)-Bis-[4-(4-methoxyphenyl)-1-butyl]-1-(1,2-dioxo-3,3-dimethylpentyl)azetidine-2,4-dicarboxylate], in assay [2], the “M17 Cell Response” value is recorded as 111% of DMSO-treated control.

With `O=C(C(=O)N1CC[C@H]1C(=O)OCCCc1cccnc1)c1ccccc1` [Compound 9], in assay [1], the “Rat Hippocampal Cell Response” value was 112% of DMSO-treated control.

With `CCC(C)(C)C(=O)C(=O)N1C(C(=O)OCCCc2cccnc2)C[C@@H]1C(=O)OCCCc1cccnc1` (stereo partly drawn) [Compound 20, (2R,4R)-Bis-[3-(3-pyridyl)-1-propyl]-1-(1,2-dioxo-3,3-dimethylpentyl)azetidine-2,4-dicarboxylate], the “M17 Cell Response” value in assay [2] is on record as 103% of DMSO-treated control.

Turning to `CCC(C)(C)C(=O)C(=O)N1C(C(=O)OCCCc2cccnc2)C[C@H]1C(=O)OCCCc1cccnc1` (stereo partly drawn) [Compound 18, (2S,4R)-Bis-[3-(3-pyridyl)-1-propyl]-1-(1,2-dioxo-3,3-dimethylpentyl)azetidine-2,4-dicarboxylate], the “Rat Hippocampal Cell Response” value in assay [1] is 137% of DMSO-treated control. Moreover, the “M17 Cell Response” value in assay [2] is on record as 106% of DMSO-treated control.

Take `Cc1cc(C(=O)N2CC[C@H]2C(=O)OCCCc2cccnc2)nn1C` [Compound 13, (2S)-[3-(3-Pyridyl)-1-propyl]-1-[(1,5-dimethylpyrazol-3-yl)carbonyl]azetidine-2-carboxylate]: in assay [1], the “Rat Hippocampal Cell Response” value is reported as 123% of DMSO-treated control.

Take `CCC(C)(C)C(=O)C(=O)N1[C@@H](C(=O)OCCCCc2ccc(OC)cc2)C[C@H]1C(=O)OCCCCc1ccc(OC)cc1` [Compound 16, (2S,4R)-Bis-[4-(4-methoxyphenyl)-1-butyl]-1-(1,2-dioxo-3,3-dimethylpentyl)azetidine-2,4-dicarboxylate]: the “M17 Cell Response” value in assay [2] was 114% of DMSO-treated control.

For `CCC(C)(C)C(=O)C(=O)N1[C@@H](C(=O)OCCC(c2ccccc2)c2ccccc2)C[C@H]1C(=O)OCCC(c1ccccc1)c1ccccc1` [Compound 17, (2S,4R)-Bis-(3,3-diphenyl-1-propyl)-1-(1,2-dioxo-3,3-dimethylpentyl)azetidine-2,4-dicarboxylate], the “M17 Cell Response” value in assay [2] is on record as 106% of DMSO-treated control.

Regarding `O=C(C(=O)N1CC[C@H]1C(=O)OCCCc1cccnc1)c1cccs1` [Compound 11, (2S)-[3-(3-Pyridyl)-1-propyl]-1-[1,2-dioxo-2-(thien-2-yl)ethyl]azetidine-2-carboxylate], in assay [1], the “Rat Hippocampal Cell Response” value is given as 114% of DMSO-treated control.

As for `CCC(C)(C)C(=O)C(=O)N1[C@H](C(=O)OCCCCc2ccc(OC)cc2)C[C@H]1C(=O)OCCCCc1ccc(OC)cc1` [Compound 21, (2S,4S)-Bis-[4-(4-methoxyphenyl)-1-butyl]-1-(1,2-dioxo-3,3-dimethylpentyl)azetidine-2,4-dicarboxylate], in assay [2], the “M17 Cell Response” value was 103% of DMSO-treated control.

Turning to `COc1ccc(CCCCOC(=O)[C@@H]2C[C@@H](C(=O)OCCCCc3ccc(OC)cc3)N2C(=O)C(=O)c2ccccc2)cc1` [Compound 15, (2S,4S)-Bis-[4-(4-methoxyphenyl)-1-butyl)-1-(1,2-dioxo-2-phenylethyl)azetidine-2,4-dicarboxylate], the “Rat Hippocampal Cell Response” value in assay [1] is 126% of DMSO-treated control.

On to `CC(C)(C)NC(=O)N1CC[C@H]1C(=O)OCCCc1cccnc1` [Compound 7], for which, in assay [1], the “Rat Hippocampal Cell Response” value is given as 123% of DMSO-treated control.

On to `CCC(C)(C)C(=O)C(=O)N1CC[C@H]1C(=O)OCCC(c1ccccc1)c1ccccc1` [Compound 3, (2S)-(3,3-Diphenyl-1-propyl)1-(1,2-dioxo-3,3-dimethylpentyl) azetidine-2-carboxylate], for which the “Rat Hippocampal Cell Response” value in assay [1] is recorded as 119% of DMSO-treated control. Moreover, the “M17 Cell Response” value in assay [2] is reported as 110% of DMSO-treated control.

Turning to `CCC(C)(C)C(=O)C(=O)N1CC[C@H]1c1nnnn1CCCc1cccnc1` [Compound 14, (2S)-1-(1,2-Dioxo-3,3-dimethylpentyl)2-(1-[3-(3-pyridyl)-1-propyl]-1H-tetrazol-5-yl)azetidine], the “Rat Hippocampal Cell Response” value in assay [1] is reported as 118% of DMSO-treated control.

For `CCC(C)(C)C(=O)C(=O)N1CC[C@H]1C(=O)OCCCCc1ccc(OC)cc1` [Compound 4, (2S)-[4-(4-Methoxyphenyl)-1-butyl]-1-(1,2-dioxo-3,3-dimethylpentyl)azetidine-2-carboxylate], the “M17 Cell Response” value in assay [2] is on record as 107% of DMSO-treated control.

As for `CCC(C)(C)C(=O)C(=O)N1CC[C@H]1C(=O)OCCCc1cccnc1` [Compound 1, (2S)-[3-(3-Pyridyl)1-propyl]-1-(1,2-dioxo-3,3-dimethylpentyl)azetidine-2-carboxylate], in the assay on DRG, the DRG result is “+”. In addition, the “M17 Cell Response” value in assay [2] is reported as 140% of DMSO-treated control. Also, the “Restoration of whisker movement on the paralyzed side” value with facial nerve is “restored more rapidly”.

Take `CCC(C)(C)C(=O)C(=O)N1CC[C@H]1C(=O)OC(C)(C)CCc1cccnc1` [Compound 2, (2S)-[3-(3-Pyridyl)-1,1-dimethyl-1-propyl]-1-(1,2-dioxo-3,3-dimethylpentyl)azetidine-2-dicarboxylate]: in the assay with DRG, the DRG entry is “+”. Moreover, in assay [2], the “M17 Cell Response” value is given as 134% of DMSO-treated control.

Turning to `C=CC[C@@H]1/C=C(\C)C[C@H](C)C[C@H](OC)[C@H]2O[C@@](O)(C(=O)C(=O)N3CCCC[C@H]3C(=O)O[C@H](/C(C)=C/[C@@H]3CC[C@@H](O)[C@H](OC)C3)[C@H](C)[C@@H](O)CC1=O)[C@H](C)C[C@@H]2OC` [FK506], the neurotrophic activity result in the assay with PC12 cells and in the assay with sensory ganglia was “shows neurotrophic activity” each time.
